Laboratory results published in ChEMBL document CHEMBL4627280, “Discovery of disubstituted xylylene derivatives as small molecule direct inhibitors of Keap1-Nrf2 protein-protein interaction” (Bioorg Med Chem, 2020).

Key:
[1] = Metabolic stability in human liver microsomes assessed as parent compound remaining at 0.1 mM measured after 90 mins by LC/MS analysis; type: ADME, Microsome; conditions: read-out: Stability
[2] = molecular target: Kelch-like ECH-associated protein 1 (Homo sapiens, UniProt Q14145); experiment: Inhibition of FITC-LDEETGEFL-NH2 binding to recombinant human Keap1 Kelch domain (321 to 609 residues) expressed in Escherichia Coli BL21(DE3)pLysS cells centrifuged for 2 mins followed by 30 mins incubation under shaking condition by fluorescence polarization assay
Kelch-like ECH-associated protein 1, sequence (Q14145 whole entry, the tested form may be a part): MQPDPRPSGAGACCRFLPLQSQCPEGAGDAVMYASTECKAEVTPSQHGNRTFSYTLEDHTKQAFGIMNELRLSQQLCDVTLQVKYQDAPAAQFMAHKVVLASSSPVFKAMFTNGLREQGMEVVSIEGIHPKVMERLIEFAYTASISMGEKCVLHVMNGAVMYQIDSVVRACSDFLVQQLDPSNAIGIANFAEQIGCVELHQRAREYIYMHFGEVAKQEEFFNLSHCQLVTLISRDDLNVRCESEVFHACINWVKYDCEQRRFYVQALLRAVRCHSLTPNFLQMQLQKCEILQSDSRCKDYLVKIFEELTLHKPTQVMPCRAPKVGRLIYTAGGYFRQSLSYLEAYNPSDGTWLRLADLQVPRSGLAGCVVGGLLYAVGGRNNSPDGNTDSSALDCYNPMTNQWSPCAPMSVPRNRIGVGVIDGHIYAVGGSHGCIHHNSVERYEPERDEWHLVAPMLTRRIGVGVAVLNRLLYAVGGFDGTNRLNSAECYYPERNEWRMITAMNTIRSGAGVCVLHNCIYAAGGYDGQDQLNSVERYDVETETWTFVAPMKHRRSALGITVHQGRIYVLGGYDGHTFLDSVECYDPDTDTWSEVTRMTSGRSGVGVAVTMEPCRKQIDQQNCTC

Compound `COc1ccc(S(=O)(=O)N(CC(=O)O)Cc2ccccc2CN(CC(=O)O)S(=O)(=O)c2ccc(OC)cc2)cc1` has a remaining at 1.5 h, 100 µM [1] of 97.7% and an IC50 [2] of 2300 nM.
`COc1ccc(S(=O)(=O)N(Cc2ccccc2CN([C@@H](C)C(=O)O)S(=O)(=O)c2ccc(OC)cc2)[C@@H](C)C(=O)O)cc1` gave a remaining at 1.5 h, 100 µM [1] of 98.2%.
With `COc1ccc(S(=O)(=O)N(CC(=O)O)c2ccc(N(CC(=O)O)S(=O)(=O)c3ccc(OC)cc3)c3ccccc23)cc1` the remaining at 1.5 h, 100 µM [1] was 56.9%.
